Experimental findings from patent US6552068B1, “3-ethyl-, 3-propyl- or 3-butyl-chroman and thiochroman derivatives” (Chugai Seiyaku Kabushiki Kaisha, priority 1999, dated 2003) are described below.

The assay deals with ovariectomized mice administered with 17β-estradiol (increase in uterine weight). Briefly: Anti-estrogenic activity (oral administration): inhibition of estradiol-induced increase in uterine weight. Format: in vivo. The settings on record: 10 mg/kg p.o. once a day for 3 days, suspended in 5% arabic gum, ovariectomized ICR mice given 17β-estradiolbenzoate 0.1 μg/mouse s.c. for 3 days, uteri weighed 24 hours after last administration; for inhibition in vivo at 10 mg/kg: po. The procedure: Test compounds were assayed for their oral anti-estrogenic activity in the following manner. In this experiment, the compounds prepared in Examples mentioned above were used as test compounds. As control compounds, the following two were used: a compound described in Example 7 of WO98/25916 and a compound corresponding to general formula (1) of the present invention, provided that R1 was a methyl group, i.e., 10-[(3RS,4RS)-7-hydroxy-3-(4-hydroxyphenyl)-3-methylthiochroman-4-yl]-2-(4,4,5,5,5-pentafluoropentyl)decanoic acid, which had been synthesized according to Reaction Schemes 1 to 7 mentioned above.
In this experiment, each of the test and control compounds was suspended in 5% arabic gum solution and orally administered for 3 days on a once-a-day basis. After 24 hours from the last administration, the test animals were sacrificed and the uteri were removed and weighed.

A word on the inhibition in vivo: it is how much of the control response was suppressed. With `C[C@@]1(c2ccc(O)cc2)CSc2cc(O)ccc2[C@@H]1CCCCCCCCC(CCCC(F)(F)C(F)(F)F)C(=O)O` (mixture of isomers) [10-[(3RS,4RS)-7-hydroxy-3-(4-hydroxyphenyl)-3-methylthiochroman-4-yl]-2-(4,4,5,5,5-pentafluoropentyl)decanoic acid, reference compound], the inhibition in vivo at 10 mg/kg was determined as 75%.

`CC[C@]1(c2ccc(O)cc2)CSc2cc(O)ccc2[C@H]1CCCCCCCCC(CCCCCC(F)(F)C(F)(F)F)C(=O)O` (mixture of isomers) [Example 14, 10-[(3RS,4RS)-3-ethyl-7-hydroxy-3-(4-hydroxyphenyl)thiochroman-4-yl]-2-(6,6,7,7,7-pentafluoroheptyl)decanoic acid]: 10 mg/kg produced 81% inhibition in vivo.

`CC[C@]1(c2ccc(O)cc2)CSc2cc(O)ccc2[C@H]1CCCCCCCCC(CCCCC(F)(F)C(F)(F)F)C(=O)O` (mixture of isomers) [Example 15, 10-[(3RS,4RS)-3-ethyl-7-hydroxy-3-(4-hydroxyphenyl)thiochroman-4-yl]-2-(5,5,6,6,6-pentafluorohexyl)decanoic acid] had an inhibition in vivo at 10 mg/kg of 92%.

For `CC[C@]1(c2ccc(O)cc2)CSc2cc(O)ccc2[C@H]1CCCCCCCCC(CCCC(F)(F)C(F)(F)F)C(=O)O` (mixture of isomers) [Example 16, 10-[(3RS,4RS)-3-ethyl-7-hydroxy-3-(4-hydroxyphenyl)thiochroman-4-yl]-2-(4,4,5,5,5-pentafluoropentyl)decanoic acid], testing at 10 mg/kg gave an inhibition in vivo of 96%.

The compound `CC[C@]1(c2ccc(O)cc2)CSc2cc(O)ccc2[C@H]1CCCCCCCCCC(CCCC(F)(F)C(F)(F)F)C(=O)O` (mixture of isomers) [Example 20, 11-[(3RS,4RS)-3-ethyl-7-hydroxy-3-(4-hydroxyphenyl)thiochroman-4-yl]-2-(4,4,5,5,5-pentafluoropentyl)undecanoic acid] showed an inhibition in vivo at 10 mg/kg of 91%.

Compound `CC[C@@]1(c2ccc(O)cc2)COc2cc(O)ccc2[C@@H]1CCCCCCCCCC(CCCCCC(F)(F)C(F)(F)F)C(=O)O` (mixture of isomers) [Example 22, 11-[(3RS,4RS)-3-ethyl-7-hydroxy-3-(4-hydroxyphenyl)chroman-4-yl]-2-(6,6,7,7,7-pentafluoroheptyl)undecanoic acid] came in with an inhibition in vivo at 10 mg/kg of 83%.

As to `CCC[C@@]1(c2ccc(O)cc2)CSc2cc(O)ccc2[C@@H]1CCCCCCCCC(CCCC(F)(F)C(F)(F)F)C(=O)O` (mixture of isomers) [Example 29, 10-[(3RS,4RS)-7-hydroxy-3-(4-hydroxyphenyl)-3-propylthiochroman-4-yl]-2-(4,4,5,5,5-pentafluoropentyl)decanoic acid], the inhibition in vivo at 10 mg/kg amounted to 91%.

With `CC[C@@]1(c2ccc(O)cc2)CSc2cc(O)ccc2[C@@H]1CCCCCCCCCC(CCC(F)(F)C(F)(F)C(F)(F)C(F)(F)F)C(=O)O` (mixture of isomers) [Example 30, 11-[(3RS,4RS)-3-ethyl-7-hydroxy-3-(4-hydroxyphenyl)thiochroman-4-yl]-2-(3,3,4,4,5,5,6,6,6-nonafluorohexyl)undecanoic acid], 10 mg/kg produced 89% inhibition in vivo.

In turn, `CC[C@@]1(c2ccc(O)cc2)CSc2cc(O)ccc2[C@@H]1CCCCCCCCC(CCC(F)(F)C(F)(F)C(F)(F)C(F)(F)F)C(=O)O` (mixture of isomers) [Example 31, 10-[(3RS,4RS)-3-ethyl-7-hydroxy-3-(4-hydroxyphenyl)thiochroman-4-yl]-2-(3,3,4,4,5,5,6,6,6-nonafluorohexyl)decanoic acid] had an inhibition in vivo at 10 mg/kg of 85%.

Turning to `CC[C@@]1(c2ccc(O)cc2)COc2cc(O)ccc2[C@@H]1CCCCCCCCCC(CCC(F)(F)C(F)(F)C(F)(F)C(F)(F)F)C(=O)O` (mixture of isomers) [Example 32, 11-[(3RS,4RS)-3-ethyl-7-hydroxy-3-(4-hydroxyphenyl)chroman-4-yl]-2-(3,3,4,4,5,5,6,6,6-nonafluorohexyl)undecanoic acid], the inhibition in vivo at 10 mg/kg was determined as 82%.

Compound `CC[C@@]1(c2ccc(O)cc2)COc2cc(O)ccc2[C@@H]1CCCCCCCCC(CCCC(F)(F)C(F)(F)C(F)(F)C(F)(F)F)C(=O)O` (mixture of isomers) [Example 34, 10-[(3RS,4RS)-3-ethyl-7-hydroxy-3-(4-hydroxyphenyl)chroman-4-yl]-2-(4,4,5,5,6,6,7,7,7-nonafluoroheptyl)decanoic acid] returned an inhibition in vivo at 10 mg/kg of 90%.

Compound `CC[C@@]1(c2ccc(O)cc2)COc2cc(O)ccc2[C@@H]1CCCCCCCCCC(CCCC(F)(F)C(F)(F)C(F)(F)C(F)(F)F)C(=O)O` (mixture of isomers) [Example 35, 11-[(3RS,4RS)-3-ethyl-7-hydroxy-3-(4-hydroxyphenyl)chroman-4-yl]-2-(4,4,5,5,6,6,7,7,7-nonafluoroheptyl)undecanoic acid] registered an inhibition in vivo at 10 mg/kg of 93%.

Regarding `CCC[C@@]1(c2ccc(O)cc2)CSc2cc(O)ccc2[C@@H]1CCCCCCCCC(CCCCC(F)(F)C(F)(F)F)C(=O)O` (mixture of isomers) [Example 36, 10-[(3RS,4RS)-7-hydroxy-3-(4-hydroxyphenyl)-3-propylthiochroman-4-yl]-2-(5,5,6,6,6-pentafluorohexyl)decanoic acid], the inhibition in vivo at 10 mg/kg came out at 89%.

Take `CCC[C@@]1(c2ccc(O)cc2)CSc2cc(O)ccc2[C@@H]1CCCCCCCCCC(CCCC(F)(F)C(F)(F)F)C(=O)O` (mixture of isomers) [Example 38, 11-[(3RS,4RS)-7-hydroxy-3-(4-hydroxyphenyl)-3-propylthiochroman-4-yl]-2-(4,4,5,5,5,-pentafluoropentyl)undecanoic acid]: the “Inhibition (%) of the increase in uterine weight” value stood at 84%.

Turning to `CCC[C@@]1(c2ccc(O)cc2)CSc2cc(O)ccc2[C@@H]1CCCCCCCCCC(CCC(F)(F)C(F)(F)C(F)(F)C(F)(F)F)C(=O)O` (mixture of isomers) [Example 39, 11-[(3RS,4RS)-7-hydroxy-3-(4-hydroxyphenyl)-3-propylthiochroman-4-yl]-2-(3,3,4,4,5,5,6,6,6-nonafluorohexyl)undecanoic acid], testing at 10 mg/kg gave an inhibition in vivo of 84%.

Compound `CCC[C@@]1(c2ccc(O)cc2)COc2cc(O)ccc2[C@@H]1CCCCCCCCC(CCCCC(F)(F)C(F)(F)F)C(=O)O` (mixture of isomers) [Example 40, 10-[(3RS,4RS)-7-hydroxy-3-(4-hydroxyphenyl)-3-propylchroman-4-yl]-2-(5,5,6,6,6-pentafluorohexyl)decanoic acid] had an inhibition in vivo at 10 mg/kg of 82%.

Regarding `CCC[C@@]1(c2ccc(O)cc2)COc2cc(O)ccc2[C@@H]1CCCCCCCCC(CCC(F)(F)C(F)(F)C(F)(F)C(F)(F)F)C(=O)O` (mixture of isomers) [Example 41, 10-[(3RS,4RS)-7-hydroxy-3-(4-hydroxyphenyl)-3-propylchroman-4-yl]-2-(3,3,4,4,5,5,6,6,6-nonafluorohexyl)decanoic acid], the inhibition in vivo at 10 mg/kg worked out at 89%.

Compound `CCC[C@@]1(c2ccc(O)cc2)COc2cc(O)ccc2[C@@H]1CCCCCCCCC(CCCC(F)(F)C(F)(F)C(F)(F)C(F)(F)F)C(=O)O` (mixture of isomers) [Example 42, 10-[(3RS,4RS)-7-hydroxy-3-(4-hydroxyphenyl)-3-propylchroman-4-yl]-2-(4,4,5,5,6,6,7,7,7-nonafluoroheptyl)decanoic acid] registered an inhibition in vivo at 10 mg/kg of 95%.

`CCC[C@@]1(c2ccc(O)cc2)COc2cc(O)ccc2[C@@H]1CCCCCCCCCC(CCCC(F)(F)C(F)(F)F)C(=O)O` (mixture of isomers) [Example 43, 11-[(3RS,4RS)-7-hydroxy-3-(4-hydroxyphenyl)-3-propylchroman-4-yl]-2-(4,4,5,5,5-pentafluoropentyl)undecanoic acid] gave an inhibition in vivo at 10 mg/kg of 85%.

The compound `CCC[C@@]1(c2ccc(O)cc2)COc2cc(O)ccc2[C@@H]1CCCCCCCCCC(CCCCC(F)(F)C(F)(F)F)C(=O)O` (mixture of isomers) [Example 44, 11-[(3RS,4RS)-7-hydroxy-3-(4-hydroxyphenyl)-3-propylchroman-4-yl]-2-(5,5,6,6,6-pentafluorohexyl)undecanoic acid] yielded an inhibition in vivo at 10 mg/kg of 84%.

As to `CCC[C@@]1(c2ccc(O)cc2)COc2cc(O)ccc2[C@@H]1CCCCCCCCCC(CCC(F)(F)C(F)(F)C(F)(F)C(F)(F)F)C(=O)O` (mixture of isomers) [Example 45, 11-[(3RS,4RS)-7-hydroxy-3-(4-hydroxyphenyl)-3-propylchroman-4-yl]-2-(3,3,4,4,5,5,6,6,6-nonafluorohexyl)undecanoic acid], testing at 10 mg/kg gave an inhibition in vivo of 85%.

Compound `CCC[C@@]1(c2ccc(O)cc2)COc2cc(O)ccc2[C@@H]1CCCCCCCCCC(CCCC(F)(F)C(F)(F)C(F)(F)C(F)(F)F)C(=O)O` (mixture of isomers) [Example 46, 11-[(3RS,4RS)-7-hydroxy-3-(4-hydroxyphenyl)-3-propylchroman-4-yl]-2-(4,4,5,5,6,6,7,7,7-nonafluoroheptyl)undecanoic acid] had an inhibition in vivo at 10 mg/kg of 94%.

Take `CCCC[C@@]1(c2ccc(O)cc2)COc2cc(O)ccc2[C@@H]1CCCCCCCCC(CCCC(F)(F)C(F)(F)C(F)(F)C(F)(F)F)C(=O)O` (mixture of isomers) [Example 47, 10-[(3RS,4RS)-3-butyl-7-hydroxy-3-(4-hydroxyphenyl)chroman-4-yl]-2-(4,4,5,5,6,6,7,7,7-nonafluoroheptyl)decanoic acid]: the inhibition in vivo at 10 mg/kg was 89%.
